# Laboratory results reported in US20220306585A1, “PYRAZOLE DERIVATIVES FOR CONTROLLING ARTHROPODS” (Bayer Animal Health GmbH, priority 2019, published 2022).
# How the values were obtained:
# [1] = test system: Ctenocephalides felis adult; assay: Antiparasitic activity after administration to rats: fleas; assay type: in vivo; conditions: for In-vivo Efficacy SD2: study day 2; for In-vivo Efficacy SD9: study day 9; for In-vivo Efficacy SD16: study day 16; for In-vivo Efficacy SD23: study day 23; for In-vivo Efficacy SD30: study day 30; for In-vivo Efficacy SD37: study day 37
# Description: (§1) Measurement of the Antiparasitic Activity after Administration of a Prodrug to Rats Compounds were dissolved in the appropriate volume of glycerol formal (p.a.) just before application to the animals (dose volume was adjusted to 0.03 mL/kg bodyweight). 5 rats per group were either injected intraperitoneally or subcutaneously. Rats were infested with 30 Dermacentor variabilis nymphs on study days −2, 7, 14, 21, 28, 35 and 30 adult Ctenocephalides fleas on study days −1, 8, 15, 22, 29, 36. Parasite counts were performed on study days 2, 9, 16, 23, 30, 37. Percent efficacy was calculated as arithmetic mean parasite numbers as life attached tick numbers and live flea numbers of the respective study group in comparison to parasite counts on a placebo-treated control group. Infestation of groups with less than 75% efficacy on two consecutive counting occasions will terminated for the respective parasite.
# [2] = Measurement of solubility in buffer at pH 6.5; assay type: physicochemical; conditions: aqueous buffer, kinetic from dmso stock; PBS buffer pH 6.5, shaken 24 h at rt, LC-MSMS; read-out: Solubility of example compounds at pH 6.5
# Description: Measurement of Solubility in Buffer at pH 6.5 2-4 mg of the test compound are dissolved in DMSO to reach a concentration of 50 g/L (solution A). To 10 μL of this solution 960 μL PBS buffer pH 6.5 are added (final concentration: […]); the mixture is shaken for 24 h at rt in a 96 well plate. An aliquot is centrifuged at 42000 rpm für 30 min. The supernatant is diluted with acetonitrile/water (8:2) 1:10 and 1:1000 resp. This diluted samples are analyzed by LC-MSMS. Calibration: 10 μL of solution A are diluted with 823 μL DMSO (final concentration: 600 μg/mL), which is further diluted with acetonitrile/water 8:2 by a factor of 100 (provides solution B). The calibration curve is obtained from solution B by further diluting with acetonitrile/water 8:2 with target concentrations of 1.2-12-60-600 ng/mL and injecting these four solutions for MS measurement. PBS-Puffer: 6.18 g sodium chloride and 3.96 g sodium dihydrogen phosphate are dissolved in 1 L aqua dist., the pH is adjusted to 6.5 with IN sodium hydroxide.
# [3] = test system: Dermacentor variabilis nymph; assay: Antiparasitic activity after administration to rats: ticks; assay type: in vivo; conditions: for In-vivo Efficacy SD2: study day 2; for In-vivo Efficacy SD9: study day 9; for In-vivo Efficacy SD16: study day 16; for In-vivo Efficacy SD23: study day 23; for In-vivo Efficacy SD30: study day 30; for In-vivo Efficacy SD37: study day 37
# Description: as §1
# [4] = Measurement of stability of prodrugs in buffer at pH 7.4; assay type: physicochemical; conditions: PBS buffer pH 7.4, 37° C., HPLC peak area, read-out: % Recovery after 24 h (stability at pH 7.4)
# Description: Preparation of the PBS buffer solution pH 7.4: 90 g sodium chloride, 13.61 g potassium dihydrogen phosphate, 83.35 g 1M aqueous sodium hydroxide were dissolved in water. More water was added up to a total volume of 1 L. This solution was diluted 1:10 with water. Eventually, pH was adjusted to pH 7.4 by the addition of phosphoric acid.
# Measurement of Stability of Prodrugs in Buffer at pH 7.4
# 0.15 mg of the test compound were dissolved in 0.1 mL dimethylsulfoxide and 0.4 mL acetonitrile. For complete dissolution, the HPLC vial with the sample solution was shaken and treated with ultrasound. Then, 1.0 mL of PBS buffer solution pH 7.4 was added and the sample was vortexed. The sample solution was analysed by HPLC (method 8) to determine the amount of the test compound at a particular time over a period of 24 h at 37° C. The peak areas, given as percentage of total area, are used for quantification. In addition, the reaction mixture was analysed by method 9 (HPLC-MS) at the final timepoint.
# [5] = Degradation of prodrugs and release of parent drug in rat plasma; assay type: in vitro ADME; conditions: male, Hannover-Janvier RjHan, rat plasma (Li-heparin), 37° C., percent area of prodrug at t0
# Description: Measurement of Release of Parent Drug in Rat Plasma 1 mg of the test compound was dissolved in 0.5 mL acetonitrile/dimethylsulfoxide 9:1. For complete dissolution the HPLC vial was shaken and treated with ultrasound. 20 μL of this solution were added to 1 mL of rat plasma (Li-heparin plasma, Hannover-Janvier rat, RjHan male) with vortexing at a temperature of 37° C. Aliquots (100 μL each) were taken at 0.17, 0.5, 1, 1.5, 2 and 4 hours. Each aliquot was transferred to a vial containing 300 μL of acetonitrile/citric acid buffer pH 3 8:2. These solutions were centrifuged at 5000 rpm for 10 minutes. The supernatant was analysed by HPLC (Method 8) to determine the amount of the test compound. In addition, the reaction mixture was analysed by method 9 (HPLC-MS) at the final timepoint. Both decrease of the prodrug concentration and increase of parent drug concentration were monitored. All data is given as percent area of the prodrug at to.
# [6] = sc, versus parent drug also injected subcutaneously
# [7] = 12.22 mg/kg sc, Ctenocephalides felis adult
# [8] = 12.22 mg/kg sc, Dermacentor variabilis nymph
# [9] = 12.84 mg/kg sc, Ctenocephalides felis adult
# [10] = 12.84 mg/kg sc, Dermacentor variabilis nymph
# [11] = 12.96 mg/kg sc, Ctenocephalides felis adult
# [12] = 12.96 mg/kg sc, Dermacentor variabilis nymph
compound,measurement,setting,value
"Cn1nc(C(F)(F)C(F)(F)F)c(C(F)(F)F)c1-n1cc(-c2ccc(Cl)c(C(=O)N(COC(=O)CCCC(=O)O)C3(C#N)CC3)c2)cn1 [Example 4, 5-{[{2-Chloro-5-[2′-methyl-5′-(pentafluoroethyl)-4′-(trifluoromethyl)-2′H-[1,3′-bipyrazol]-4-yl]benzoyl}(1-cyanocyclopropyl)amino]methoxy}-5-oxopentanoic acid]",flea efficacy on rats compared with parent drug,[1]; [6],superior
same,solubility at 24 h,[2],179 µg/mL
same,tick efficacy on rats compared with parent drug,[3]; [6],superior
same,"recovery at 24 h, 0.1 mg/mL",[4],100%
same,"recovery at 0.17 h, 39 µg/mL",[5],73%
same,"recovery at 0.5 h, 39 µg/mL",[5],42%
same,"recovery at 1 h, 39 µg/mL",[5],18%
same,"recovery at 1.5 h, 39 µg/mL",[5],9%
same,"recovery at 2 h, 39 µg/mL",[5],0%
same,"recovery at 4 h, 39 µg/mL",[5],0%
"N#CC1(N(COC(=O)CCCC(=O)O)C(=O)c2cc(-c3cnn(-c4c(Cl)cc(C(F)(C(F)(F)F)C(F)(F)F)cc4OC(F)(F)F)c3)ccc2Cl)CC1 [Example 9, 5-{[(2-Chloro-5-{1-[2-chloro-4-(1,1,1,2,3,3,3-heptafluoropropan-2-yl)-6-(trifluoromethoxy)phenyl]-1H-pyrazol-4-yl}benzoyl)(1-cyanocyclopropyl)amino]methoxy}-5-oxopentanoic acid]",In-vivo Efficacy SD2,[1]; [7],100%
same,In-vivo Efficacy SD9,[1]; [7],97%
same,In-vivo Efficacy SD16,[1]; [7],96%
same,In-vivo Efficacy SD23,[1]; [7],97%
same,In-vivo Efficacy SD30,[1]; [7],91%
same,In-vivo Efficacy SD37,[1]; [7],46%
same,solubility at 24 h,[2],10 µg/mL
same,In-vivo Efficacy SD2,[3]; [8],99%
same,In-vivo Efficacy SD9,[3]; [8],100%
same,In-vivo Efficacy SD16,[3]; [8],96%
same,In-vivo Efficacy SD23,[3]; [8],98%
same,In-vivo Efficacy SD30,[3]; [8],85%
same,In-vivo Efficacy SD37,[3]; [8],49%
same,"recovery at 24 h, 0.1 mg/mL",[4],100%
same,"recovery at 0.17 h, 39 µg/mL",[5],89%
same,"recovery at 0.5 h, 39 µg/mL",[5],77%
same,"recovery at 1 h, 39 µg/mL",[5],66%
same,"recovery at 1.5 h, 39 µg/mL",[5],56%
same,"recovery at 2 h, 39 µg/mL",[5],48%
same,"recovery at 4 h, 39 µg/mL",[5],29%
"N#CC1(N(COC(=O)[C@H]2CC[C@H](C(=O)O)CC2)C(=O)c2cc(-c3cnn(-c4c(Cl)cc(C(F)(C(F)(F)F)C(F)(F)F)cc4OC(F)(F)F)c3)ccc2Cl)CC1 [Example 11, (trans)-4-({[(2-Chloro-5-{1-[2-chloro-4-(1,1,1,2,3,3,3-heptafluoropropan-2-yl)-6-(trifluoromethoxy)phenyl]-1H-pyrazol-4-yl}benzoyl)(1-cyanocyclopropyl)amino]methoxy}carbonyl)cyclohexane-1-carboxylic acid]",In-vivo Efficacy SD2,[1]; [9],100%
same,In-vivo Efficacy SD9,[1]; [9],100%
same,In-vivo Efficacy SD16,[1]; [9],100%
same,In-vivo Efficacy SD23,[1]; [9],100%
same,In-vivo Efficacy SD30,[1]; [9],97%
same,In-vivo Efficacy SD37,[1]; [9],76%
same,solubility at 24 h,[2],5 µg/mL
same,In-vivo Efficacy SD2,[3]; [10],100%
same,In-vivo Efficacy SD9,[3]; [10],100%
same,In-vivo Efficacy SD16,[3]; [10],100%
same,In-vivo Efficacy SD23,[3]; [10],100%
same,In-vivo Efficacy SD30,[3]; [10],96%
same,In-vivo Efficacy SD37,[3]; [10],71%
same,"recovery at 24 h, 0.1 mg/mL",[4],100%
same,"recovery at 0.17 h, 39 µg/mL",[5],98%
same,"recovery at 0.5 h, 39 µg/mL",[5],96%
same,"recovery at 1 h, 39 µg/mL",[5],92%
same,"recovery at 1.5 h, 39 µg/mL",[5],89%
same,"recovery at 2 h, 39 µg/mL",[5],86%
same,"recovery at 4 h, 39 µg/mL",[5],74%
"N#CC1(N(COC(=O)Cc2ccc(C(=O)O)cc2)C(=O)c2cc(-c3cnn(-c4c(Cl)cc(C(F)(C(F)(F)F)C(F)(F)F)cc4OC(F)(F)F)c3)ccc2Cl)CC1 [Example 15, 4-(2-{[(2-Chloro-5-{1-[2-chloro-4-(1,1,1,2,3,3,3-heptafluoropropan-2-yl)-6-(trifluoromethoxy)phenyl]-1H-pyrazol-4-yl}benzoyl)(1-cyanocyclopropyl)amino]methoxy}-2-oxoethyl)benzoic acid]",In-vivo Efficacy SD2,[1]; [11],100%
same,In-vivo Efficacy SD9,[1]; [11],100%
same,In-vivo Efficacy SD16,[1]; [11],100%
same,In-vivo Efficacy SD23,[1]; [11],99%
same,In-vivo Efficacy SD30,[1]; [11],96%
same,In-vivo Efficacy SD37,[1]; [11],81%
same,In-vivo Efficacy SD42,"[1]; 12.96 mg/kg sc, Ctenocephalides felis adult, study day 42",75%
same,solubility at 24 h,[2],5 µg/mL
same,In-vivo Efficacy SD2,[3]; [12],100%
same,In-vivo Efficacy SD9,[3]; [12],100%
same,In-vivo Efficacy SD16,[3]; [12],100%
same,In-vivo Efficacy SD23,[3]; [12],100%
same,In-vivo Efficacy SD30,[3]; [12],100%
same,In-vivo Efficacy SD37,[3]; [12],100%
same,In-vivo Efficacy SD42,"[3]; 12.96 mg/kg sc, Dermacentor variabilis nymph, study day 42",96%
same,"recovery at 24 h, 0.1 mg/mL",[4],100%
same,"recovery at 0.17 h, 39 µg/mL",[5],94%
same,"recovery at 0.5 h, 39 µg/mL",[5],81%
same,"recovery at 1 h, 39 µg/mL",[5],62%
same,"recovery at 1.5 h, 39 µg/mL",[5],47%
same,"recovery at 2 h, 39 µg/mL",[5],36%
same,"recovery at 4 h, 39 µg/mL",[5],10%
